According to PMC10818719 (Viruses, 2023):
Where two headings read alike, the source gives them in different places.

Assays:
[1] = test system: human adenovirus type 5 (HAdV5); design: method as in ref 16 = [16]; conditions: combined virucidal and irradiation effects; cited from earlier work
[2] = test system: bovine coronavirus (BCoV); assay type: cell-based, Beta-coronavirus 1
[3] = test system: bovine coronavirus (BCoV) strain S379 Riems; assay type: cell-based, Beta-coronavirus 1; conditions: for EC100 (100% Viable Cells): BCoV MOI = 1, with irradiation
[4] = test system: bovine coronavirus (BCoV); assay type: cell-based, Beta-coronavirus 1; conditions: with irradiation, MDBK cells
MDBK cells [5] = conditions: for IC50: no BCoV
[6] = test system: avian H5N8 influenza virus; conditions: cited from earlier work
SARS-CoV-2 [7] = test system: SARS-CoV-2; design: method as in ref 19 = [19]; conditions: in combination with far red light irradiation; cited from earlier work
SARS-CoV-2 [8] = conditions: 1% MB, cited from earlier work
vaccinia viruses = conditions: 30 µM of MB + PDI; not virus antigenicity; cited from earlier work
SARS-CoV-2 [9] = conditions: irradiation with a wave length of λ = 662 nm; cited from earlier work
BCoV = test system: BCoV; design: method as in ref 48 = [48]; conditions: independently of light; cited from earlier work
MDBK cells [10] = experiment: cells; conditions: Bos taurus

octa-methylpyridyloxy-substituted Ga phthalocyanine [Ga8]
PDI potential on naked viruses, especially on HAdV5 [1]: remarkable PDI potential

Cc1cc2nc3ccc(N(C)C)cc3[s+]c2cc1N.[Cl-] [TBO, toluidine blue O]
decrease in the number of viral cDNA [2]: ~ 6 log/mL
Δlog cDNA/mL vs. Virus Control ([2]; TBO 0.02 µM): 1.08 × 10^3
Δlog cDNA/mL vs. Virus Control ([2]; TBO 0.30 µM): 5.91 × 10^6
fold higher SI of TBO than MB [3]: 1.7 fold
fold lower EC50 (fold more active) of TBO than MB ([3]; 50% BCoV inactivation, with irradiation): 3.6 fold
EC50 ([3]; BCoV MOI = 1, irradiation 54 J/cm^2 (680 nm) for MB, 99 J/cm^2 (635 nm) for TBO, MDBK cells, MTT, read-out: EC50 (50% Viable Cells)): 5 nM
EC100 (100% Viable Cells) ([3]; MDBK cells, MTT): 0.02 µM
SI (IC50/EC50) ([3]; IC50 in MDBK cells / EC50 for direct BCoV inactivation with irradiation): 170
concentration resulting in strong inactivation of BCoV ([3]; irradiation 680 nm and 54 J/cm^2 for MB, 635 nm and 99 J/cm^2 for TBO, Figure 7): ≥ 0.02 µM
fold more effective than MB, based on the active concentrations ([3]; with irradiation): 25 fold
viable cells ([3]; without irradiation, 0.25 µM, Figure 7b): 80%
decrease of the fraction of viable cells (cytotoxic) ([3]; without irradiation, concentration increased above 0.25 µM, Figure 7b): approximately 50%
concentrations up to which permissive cells were observed [4]: up to 0.01 µM
MNC (maximal nontoxic concentration) (MDBK cells [5]; 24 h incubation): 0.66 µM
IC50 (MDBK cells [5]; 24 h incubation): 970 nM
MNC (maximal nontoxic concentration) (MDBK cells [5]; 48 h incubation): 0.35 µM
IC50 (MDBK cells [5]; 48 h incubation): 520 nM
MNC (maximal nontoxic concentration) (MDBK cells [5]; 72 h incubation): 0.59 µM
IC50 (MDBK cells [5]; 72 h incubation): 850 nM
fold lower IC50 of TBO than MB (MDBK cells [5]; 72 h of incubation): 2.12 fold

octakis (cholinyl) zinc phthalocyanine [Zn-PcChol8+]
sensitivity of the virus to PDI [6]: sensitive to PDI
infectivity of SARS-CoV-2 (SARS-CoV-2 [7]): completely destroyed the infectivity

CN(C)c1ccc2nc3ccc(=[N+](C)C)cc-3sc2c1 [MB, Methylene blue]
SARS-CoV-2 virus load (SARS-CoV-2 [8]; gargling or spraying in the nasal cavity, early stages of the infection): sufficient reduction of the SARS-CoV-2 virus load
adverse effects (SARS-CoV-2 [8]; local application, even in patients with co-morbidities): lack of adverse effects
EC100 (100% Viable Cells) ([3]; MDBK cells, MTT): 0.15 µM
"dark" antiviral activity towards BCoV ([3]; without irradiation, highest tested concentration 0.3 µM, Figure 7a): not enough to achieve “dark” antiviral activity
effect on virus infectivity (vaccinia viruses): loss of virus infectivity
protection of Vero E6 cells from infection (SARS-CoV-2 [9]): fully protected
concentration at which light-independent antiviral activity was observed (BCoV): ≥ 1 µM
concentrations up to which permissive cells were observed [4]: up to 0.075 µM
IC50 (MDBK cells [10]; 24 h): 2540 nM
IC50 (MDBK cells [10]; 48 h): 1280 nM
IC50 (MDBK cells [10]; 72 h): 1800 nM
IC50 (MDBK cells [10]; read-out: IC50, range over the incubation periods): 1280 to 2540 nM

tetra-methylpyridyloxy-substituted Ga phthalocyanine [Ga4]
PDI potential on naked viruses, especially on HAdV5 [1]: remarkable PDI potential
